Assay results reported in paper PMC10458312, “Xanthones with Potential Anti-Inflammatory and Anti-HIV Effects from the Stems and Leaves of Cratoxylum cochinchinense” (Molecules, 2023).
Like-named read-outs stand apart in the source and are kept apart here.

How the values were obtained:
HIV-1IIIB = assay: Inhibition assay for the cytopathic effects of HIV-1 (syncytia formation) in C8166 cells; conditions: for TI (therapeutic index) = CC50/EC50: CC50 in C8166 / EC50 against HIV-1; for EC50: Human immunodeficiency virus 1, C8166, 72 h, read-out: EC50 (50% effective concentration), anti-HIV-1
Description: All isolated xanthones 1–12 were assessed for their anti-HIV reverse transcriptase (RT) effects according to the inhibition assay for the cytopathic activities of HIV-1 (EC50) as well as the cytotoxic activities assay against C8166 cell line (CC50) according to MTT methods.
All isolated xanthones 1–12 were assessed for their anti-HIV-1 reverse transcriptase (RT) effects in vitro on the basis of the inhibition assay for the cytopathic effects of HIV-1 (EC50), in light of the protocol which is described in detail in the Supplementary Material of our current article, in which AZT (3′-azido-3′-deoxythymidine) was adopted as the positive control. All isolated xanthones 1–12 and the positive control (AZT) were also evaluated for their cytotoxic activities against C8166 cells (CC50) on the basis of the MTT method. […]
(§1) Anti-HIV-1 activity bioassays
Cytotoxicity against C8166 cells (CC50) was assessed using the MTT method, and anti-HIV-1 activity was evaluated by the inhibition assay for the cytopathic effects of HIV-1 (EC50). Briefly, cells were seeded on a microtiter plate in the absence or presence of various concentrations of compounds in triplicate and incubated at 37 °C in a humid atmosphere of 5% CO2 for three days.
20.0 μL MTT reagent (5.0 mg/mL in PBS) was added to each well, then incubated at 37 °C for 4 h, 50% DMF-20% SDS (100.0 μL) was added. After the formazan was dissolved completely, the plates were read on a Bio-Tek ELx 800 ELISA reader at 595 nm/630 nm (A595/630). The cytotoxic concentration that caused the reduction of viable cells by 50% (CC50) was calculated from dose–response curve. In 100.0 μL various concentrations of compounds, C8166 cells (4×10^5/mL) were infected with virus (HIV-1IIIB) at a multiplicity of infection (M. O. I) of 0.06. The final volume per well was 200.0 μL. Control assays were performed without the testing compounds in HIV-1IIIB infected and uninfected cultures. AZT (3′-azido-3′-deoxythymidine) was used as a positive control. After three days of culture, the cytopathic effect (CPE) was measured by counting the number of syncytia (multinucleated giant cell). Percentage inhibition of syncytia formation was calculated and 50% effective concentration (EC50) was calculated. The therapeutic index (TI) was calculated from the ratio of CC50/EC50.

[1] = MTT cytotoxicity assay against C8166 cells; format: cell-based; conditions: human
Description: as §1
50% DMF-20% SDS (100.0 μL) was added. After the formazan was dissolved completely, the
volume per well was 200.0 μL. Control assays were performed without the testing compounds in
HIV-1IIIB infected and uninfected cultures. […]

[2] = test system: NO production induced by lipopolysaccharide in mouse macrophage RAW 264.7 cells; assay: Inhibition of NO production induced by lipopolysaccharide in RAW 264.7 cells (Griess reaction); format: cell-based; conditions: RAW264.7, LPS-induced RAW 264.7 cells, 24 h, mean ± SD of triplicate determinations, read-out: IC50 (50% inhibitory concentration on NO production)
[3] = C8166 cells, C8166 cell line, MTT, three days, read-out: CC50 (50% cytotoxic concentration)

Structure (SMILES)	TI (therapeutic index) = CC50/EC50 (HIV-1IIIB)	EC50 (HIV-1IIIB)	CC50 at 3 days [1, 3]	IC50 [2]	CC50 at 3 days [1]
C[C@@H]1Oc2cc(O)c3c(=O)c4cc(O)c(O)c(O)c4oc3c2C1(C)C [Compound 7, 2-deprenyl-7-hydroxy-rheediaxanthone]	>48.08	4.16 µM	> 200 µM	12.58 ± 0.12 µM	
Cc1cn([C@H]2C[C@H](N=[N+]=[N-])[C@@H](CO)O2)c(=O)[nH]c1=O [AZT, 3′-azido-3′-deoxythymidine, reference compound]	193,371.51	0.0208 µM			4020 µM
COc1cc(O)c2c(=O)c3c(OC)c(OC)c(O)cc3oc2c1 [Compound 10, 3,8-dihydroxy-1,2,6-trimethoxy-9H-xanthen-9-one]	>74.91	2.67 µM	> 200 µM	7.47 ± 0.11 µM	
C[C@]12CCC(=O)C=C1CC[C@@H]1[C@@H]2[C@@H](O)C[C@@]2(C)[C@H]1CC[C@]2(O)C(=O)CO [Hydrocortisone, reference compound]				4.08 ± 0.08 µM	
COc1cc2oc3c(O)ccc(OC)c3c(=O)c2c(O)c1OC [Compound 11, 1,5-dihydroxy-2,3,8-trimethoxy-9H-xanthen-9-one]	>17.81	11.2 µM	> 200 µM	3.16 ± 0.09 µM	
C=C(C)C(O)CCC(C)=CCc1c(O)c(CC=C(C)C)c(O)c2c(=O)c3cc(O)ccc3oc12 (stereo not shown) [Compound 1, Cratocochinone A]	>909.09	0.22 µM	> 200 µM	1.29 ± 0.06 µM	
COc1ccc2c(=O)c3cc(O)c(OC)c(O)c3oc2c1OC [Compound 4, Cratocochinone D]	>49.14	4.07 µM	> 200 µM	9.42 ± 0.13 µM	
CC(C)=CCC/C(C)=C/Cc1c(O)c(CC=C(C)C)c(O)c2c(=O)c3c(O)ccc(O)c3oc12 [Compound 5, 1,3,5,8-tetrahydroxy-2-(3-methybut-2-enyl)-4-(3,7-dimethylocta-2,6-dienyl) xanthone]	>79.05	2.53 µM	> 200 µM	6.47 ± 0.1 µM	
COc1ccc2c(=O)c3c(O)cc4c(c3oc2c1O)C(C)(C)C(CO)O4 (stereo not shown) [Compound 2, Cratocochinone B]	>294.12	0.68 µM	> 200 µM	2.17 ± 0.09 µM	
COc1c(O)cc2oc3ccc(O)c(OC)c3c(=O)c2c1OC [Compound 9, 3,7-dihydroxy-1,2,8-trimethoxy-9H-xanthen-9-one]	>37.59	5.32 µM	> 200 µM	18.4 ± 0.21 µM	
CC1(C)c2c(cc(O)c3c(=O)c4ccc(O)c(O)c4oc23)O[C@H]1CO [Compound 6, cochinchinone P]	>64.94	3.08 µM	> 200 µM	8.35 ± 0.15 µM	
COc1ccc2c(=O)c3c(OC)c(OC)c(O)cc3oc2c1O [Compound 3, Cratocochinone C]	>105.82	1.89 µM	> 200 µM	0.86 ± 0.05 µM	
COc1c(O)cc2oc3cc(O)c(OC)c(OC)c3c(=O)c2c1O [Compound 12, 1,3,6-trihydroxy-2,7,8-trimethoxy-9H-xanthen-9-one]	>31.50	6.35 µM	> 200 µM	6.21 ± 0.08 µM	
COc1cc2c(c3oc4c5c(ccc4c(=O)c13)OCO5)C=CC(C)(C)O2 [Compound 8, musaxanthone]	>22.45	8.91 µM	> 200 µM	4.16 ± 0.08 µM	
